A word on the pKa: it is the pH at which an ionisable group is half protonated.

The text below walks through data of US20260337153A1, “IONIZABLE AMINE LIPIDS” (Intellia Therapeutics, Inc., priority 2023, published 2026).

Series [1] can be described thus: pKa of unformulated amine lipid by TNS fluorescence. As to conditions: sodium phosphate buffer; Table 2; unformulated amine lipid, TNS; read-out: Lipid pKa. The series is classed as physicochemical. On the procedure:
The pKa of each amine lipid was determined according to the method in Jayaraman, et al. (Angew Chem Int Ed Engl 51(34), 2012, 8529-8533) with the following adaptations. The pKa was determined for unformulated amine lipid in ethanol. Lipid stock solutions (2.94 mM) were diluted into Sodium Phosphate Buffers (0.1 M, Boston Bioproducts) of different pH (pH-range: 4.5-9.0) yielding a final lipid concentration of approx. 100 μM. The test samples were supplemented with TNS {6-(p-Toluidino)-2-naphthalenesulfonic acid sodium salt}, incubated and the fluorescence intensity was measured using excitation and emission wavelengths of 321 nm and 448 nm, respectively. The recorded data were normalized and the respective pKa values were derived from sigmoidal fitting.

A further series concerns rat TTR gene. Nature of the series: In vivo editing of TTR in rat liver after LNP delivery (NGS, % editing). Also noted: species or system rat (Sprague-Dawley). The following applies: LNP with PEG2K-DMG. The protocol:
LNPs were prepared using various amine lipids in a 4-component lipid system consisting of an ionizable lipid (e.g., an amine lipid), DSPC, cholesterol and a PEG lipid (e.g., PEG2K-DMG, C13 Ether, C14 Ether). In assays for percent liver editing in rats, Cas9 mRNA and chemically modified sgRNA targeting a rat sequence were formulated in LNPs, at either a 1:1 w/w ratio or a 1:2 w/w sgRNA:Cas9 mRNA ratio.
The lipid components were dissolved in 100% ethanol with the lipid component molar ratios described below. The chemically modified sgRNA and Cas9 mRNA were combined and dissolved in 25 mM citrate, 100 mM NaCl, pH 5.0, resulting in a concentration of total RNA cargo of approximately 0.45 mg/mL. The LNPs were formulated with an N:P ratio of about 6, with the ratio of chemically modified sgRNA:Cas9 mRNA at either a 1:1 or 1:2 w/w ratio as described below.
The LNPs were formed by an impinging jet mixing of the lipid in ethanol with two volumes of RNA solution and one volume of water. First, the lipid in ethanol is mixed through a mixing cross with the two volumes of RNA solution. Then, a fourth stream of water is mixed with the outlet stream of the cross through an inline tee. (See, e.g., WO2016010840, FIG. 2). The LNPs were held for 1 hour at room temperature, and further diluted with water (approximately 1:1 v/v). Diluted LNPs were buffer exchanged into 50 mM Tris, 45 mM NaCl, 5% (w/v) sucrose, pH 7.5 (TSS) and concentrated as needed by methods known in the art. The resulting mixture was then filtered using a 0.2 μm sterile filter. The final LNP was stored at 4° C. or −80° C. until further use.
Sprague-Dawley female rats, ranging from 6-10 weeks of age were used in each study. Animals were weighed and dosed based on individual body weight measured the morning of dosing. LNPs were dosed via the lateral tail vein in a volume of 2 mL per kilogram of animal body weight. The animals were periodically observed for adverse effects for at least 24 hours post dose.
For studies measuring in vivo editing in liver, Sprague-Dawley female rats were dosed at 0.1 mpk or 0.03 mpk, unless otherwise noted. Animals were euthanized at 6 or 7 days by carbon dioxide asphyxiation and a heart clip or by ex sanguination via cardiac puncture under isoflourane anesthesia. Blood was collected into serum separator tubes. Liver tissue was collected. Genomic DNA was isolated from the liver tissue for editing measurement by Next-Generation Sequencing (NGS).
In brief, to quantitatively determine the efficiency of editing at the target location in the genome, genomic DNA was isolated and deep sequencing was utilized to identify the presence of insertions and deletions introduced by gene editing.
PCR primers were designed around the target site (e.g., TTR), and the genomic area of interest was amplified. Additional PCR was performed according to the manufacturer's protocols (Illumina) to add the necessary chemistry for sequencing. The amplicons were sequenced on an Illumina MiSeq instrument. The reads were aligned to the […] after eliminating those having low quality scores. The resulting files containing the reads were mapped to the reference genome (BAM files), where reads that overlapped the target region of interest were selected and the number of wild type reads versus the number of reads which contain an insertion, substitution, or deletion was calculated.
The editing percentage (e.g., the “indel efficiency” or “percent indels” or “% editing” or “% indel”) can be defined as the total number of sequence reads with insertions or deletions over the total number of sequence reads, including wild type.
In vivo editing efficiency for materials delivered with formulations including various amine lipid (or ionizable lipid) compounds in Experiments 1 through 14 as described in Tables 3 and 4 was assessed. Editing was measured using G000534 (SEQ ID NO: 5) which targets the rat TTR gene. […]

As to `CCCCC/C=C\C/C=C\CCCCCCCC(=O)OCC(CCCCCCCCC(=O)OC(CCCCCCCC)CCCCCCCC)COC(=O)OCCCN(C)CC` (stereo not drawn) [Compound 11, 2-((((3-(ethyl(methyl)amino)propoxy)carbonyl)oxy)methyl)-11-(heptadecan-9-yloxy)-11-oxoundecyl (9Z,12Z)-octadeca-9,12-dienoate], the pKa in series [1] stood at 6.13. Besides, in the series with rat TTR gene (Experiment 4, 0.1 mpk), the Mean % editing amounted to 14.0%.

Turning to `CCCCC/C=C\C/C=C\CCCCCCCC(=O)OCC(CCCCC(=O)OC(CCCC)CCCC)COC(=O)NCCN(CC)CC` (stereo not drawn) [Compound 12, 2-((((2-(diethylamino)ethyl)carbamoyl)oxy)methyl)-7-(nonan-5-yloxy)-7-oxoheptyl (9Z,12Z)-octadeca-9,12-dienoate], the pKa in series [1] was determined as 6.82. Also, in the series with rat TTR gene (Experiment 4, 0.1 mpk), the Mean % editing is on record as 11.6%.

Take `CCCCC/C=C\C/C=C\CCCCCCCC(=O)OCC(CCCCC(=O)OC(CCCC)CCCC)COC(=O)OCCCN(C)CC` (stereo not drawn) [Compound 13, 2-((((3-(ethyl(methyl)amino)propoxy)carbonyl)oxy)methyl)-7-(nonan-5-yloxy)-7-oxoheptyl (9Z,12Z)-octadeca-9,12-dienoate]: in series [1], the pKa was 6.64. For the same compound, the Mean % editing with rat TTR gene (Experiment 4, 0.1 mpk) is 20.9%.

In the case of `CCCCC/C=C\C/C=C\CCCCCCCC(=O)OCC(CCCCC(=O)OC(CCCC)CCCC)COC(=O)OCCCN(CC)CC` (stereo not drawn) [Compound 14, 2-((((3-(diethylamino)propoxy)carbonyl)oxy)methyl)-7-(nonan-5-yloxy)-7-oxoheptyl (9Z,12Z)-octadeca-9,12-dienoate], the pKa in series [1] amounted to 6.27. Also, the Mean % editing in the series with rat TTR gene (Experiment 4, 0.1 mpk) is listed as 16.8%.

For `CCCCC/C=C\C/C=C\CCCCCCCC(=O)OCC(CCCCC(=O)OC(CCCCCCCC)CCCCCCCC)COC(=O)OCCCN(CC)CC` (stereo not drawn) [Compound 15, 2-((((3-(diethylamino)propoxy)carbonyl)oxy)methyl)-7-(heptadecan-9-yloxy)-7-oxoheptyl (9Z,12Z)-octadeca-9,12-dienoate], the pKa in series [1] came to 6.11. For the same compound, the Mean % editing in the series with rat TTR gene (Experiment 9, 0.1 mpk) turned out to be 15.1%.

With `CCCCC/C=C\C/C=C\CCCCCCCC(=O)OCC(CCCCCCC(=O)OC(CCCCCCCC)CCCCCCCC)COC(=O)OCCCN(CC)CC` (stereo not drawn) [Compound 16, 2-((((3-(diethylamino)propoxy)carbonyl)oxy)methyl)-9-(heptadecan-9-yloxy)-9-oxononyl (9Z,12Z)-octadeca-9,12-dienoate], the pKa in series [1] was determined as 5.98. Further, the Mean % editing in the series with rat TTR gene (Experiment 9, 0.1 mpk) is listed as 14.9%.

Take `CCCCC/C=C\C/C=C\CCCCCCCC(=O)OCC(CCCCC(=O)OC(CCCCCC)CCCCCC)COC(=O)OCCCN(CC)CC` (stereo not drawn) [Compound 17, 2-((((3-(diethylamino)propoxy)carbonyl)oxy)methyl)-7-oxo-7-(tridecan-7-yloxy)heptyl (9Z,12Z)-octadeca-9,12-dienoate]: the pKa in series [1] is 6.13. For the same compound, in the series with rat TTR gene (Experiment 9, 0.1 mpk), the Mean % editing is recorded as 35.8%.

Consider `CCCCC/C=C\C/C=C\CCCCCCCC(=O)OCC(CCCCCCC(=O)OC(CCCCCC)CCCCCC)COC(=O)OCCCN(CC)CC` (stereo not drawn) [Compound 18, 2-((((3-(diethylamino)propoxy)carbonyl)oxy)methyl)-9-oxo-9-(tridecan-7-yloxy)nonyl (9Z,12Z)-octadeca-9,12-dienoate], for which the pKa in series [1] was 6.08. The Mean % editing with rat TTR gene (Experiment 9, 0.1 mpk) worked out at 34.4%.

In the case of `CCCCC/C=C\C/C=C\CCCCCCCC(=O)OCC(CCCCCCCCC(=O)OC(CCCCCC)CCCCCC)COC(=O)OCCCN(CC)CC` (stereo not drawn) [Compound 19, 2-((((3-(diethylamino)propoxy)carbonyl)oxy)methyl)-11-oxo-11-(tridecan-7-yloxy)undecyl (9Z,12Z)-octadeca-9,12-dienoate], the pKa in series [1] stood at 6.09. Besides, the Mean % editing in the series on rat TTR gene (Experiment 9, 0.1 mpk) was 14.4%.

With `CCCCC/C=C\C/C=C\CCCCCCCC(=O)OCC(CCCCCCC(=O)OC(CCCC)CCCC)COC(=O)OCCCN(CC)CC` (stereo not drawn) [Compound 20, 2-((((3-(diethylamino)propoxy)carbonyl)oxy)methyl)-9-(nonan-5-yloxy)-9-oxononyl (9Z,12Z)-octadeca-9,12-dienoate], the pKa in series [1] was found to be 6.19. The Mean % editing in the series with rat TTR gene (Experiment 9, 0.1 mpk) amounted to 32.0%.

Take `CCCCCCCCOC(CCC(=O)OCC(COC(=O)CCC(OCCCCCCCC)OCCCCCCCC)COC(=O)NCCN(CC)CC)OCCCCCCCC` [Compound 22, 2-((((2-(diethylamino)ethyl)carbamoyl)oxy)methyl)propane-1,3-diyl bis(4,4-bis(octyloxy)butanoate)]: in series [1], the pKa was found to be 6.66. Moreover, the Mean % editing in the series with rat TTR gene (Experiment 8, 0.1 mpk) came out at 61.3%.

Take `CCCCC/C=C\C/C=C\CCCCCCCCC(COC(=O)CCCCCC(=O)OC(CCCCCCCC)CCCCCCCC)COC(=O)NCCN(CC)CC` (stereo not drawn) [Compound 23, 1-((11Z,14Z)-2-((((2-(diethylamino)ethyl)carbamoyl)oxy)methyl)icosa-11,14-dien-1-yl) 7-(heptadecan-9-yl) heptanedioate]: the pKa in series [1] was determined as 6.49. The Mean % editing in the series on rat TTR gene (Experiment 6, 0.1 mpk) was determined as 55.3%; in the series with rat TTR gene (Experiment 11, 0.1 mpk) it was 54.0%.

`CCCCC/C=C\C/C=C\CCCCCCCC(=O)OCC(CCCCCCCCC(=O)OC(CCCCCCCC)CCCCCCCCC)COC(=O)CCC(CCCCCCCC)OC(=O)NCCN(C)CC` (stereo not drawn) [Compound 24, 3-methyl-15-(9-(octadecan-9-yloxy)-9-oxononyl)-9-octyl-7,12-dioxo-8,13-dioxa-3,6-diazahexadecan-16-yl (9Z,12Z)-octadeca-9,12-dienoate]: in series [1], the pKa was 6.1. Further, the Mean % editing with rat TTR gene (Experiment 5, 0.1 mpk) came out at 3.6%.

For the compound `CCCCC/C=C\C/C=C\CCCCCCCC(=O)OCC(CCCCCCCCC(=O)OC(CCCCCCCC)CCCCCCCCC)COC(=O)CCC(CCCCCCCC)OC(=O)NCCN1CCCC1` (stereo not drawn) [Compound 25, 11-(octadecan-9-yloxy)-11-oxo-2-(((4-(((2-(pyrrolidin-1-yl)ethyl)carbamoyl)oxy)dodecanoyl)oxy)methyl)undecyl (9Z,12Z)-octadeca-9,12-dienoate], the pKa in series [1] is 6.44. The Mean % editing with rat TTR gene (Experiment 5, 0.1 mpk) was determined as 17.0%.

With `CCCCC/C=C\C/C=C\CCCCCCCC(=O)OCC(CCCCCCCCC(=O)OC(CCCCCCCC)CCCCCCCCC)COC(=O)CCC(CCCC)OC(=O)NCCN(C)CC` (stereo not drawn) [Compound 26, 9-butyl-3-methyl-15-(9-(octadecan-9-yloxy)-9-oxononyl)-7,12-dioxo-8,13-dioxa-3,6-diazahexadecan-16-yl (9Z,12Z)-octadeca-9,12-dienoate], the pKa in series [1] is 6.36. Further, in the series on rat TTR gene (Experiment 5, 0.1 mpk), the Mean % editing amounted to 41.9%.

For `CCCCC/C=C\C/C=C\CCCCCCCC(=O)OCC(CCCCCCCCC(=O)OC(CCCCCCCC)CCCCCCCCC)COC(=O)CCC(CCCC)OC(=O)NCCN1CCCC1` (stereo not drawn) [Compound 27, 11-(octadecan-9-yloxy)-11-oxo-2-(((4-(((2-(pyrrolidin-1-yl)ethyl)carbamoyl)oxy)octanoyl)oxy)methyl)undecyl (9Z,12Z)-octadeca-9,12-dienoate], the pKa in series [1] was 6.75. This compound came in with a Mean % editing with rat TTR gene (Experiment 5, 0.1 mpk) of 55.3%.
